Assays:
Type in all cases: functional
[1] = test system: SF-268; experiment: Growth inhibition of human SF268 cells assessed as cell growth at 10^-8 M by sulforhodamine B assay; details: read-out: Activity
[2] = Growth inhibition of human Hs 578T cells by sulforhodamine B assay
[3] = test system: SK-MEL-5; experiment: Growth inhibition of human SK-MEL-5 cells assessed as cell growth at 10^-7 M by sulforhodamine B assay; details: read-out: Activity
[4] = test system: 786-0; experiment: Growth inhibition of human 786-0 cells assessed as cell growth at 10^-6 M by sulforhodamine B assay; details: read-out: Activity
[5] = test system: DU-145; experiment: Growth inhibition of human DU145 cells assessed as cell growth at 10^-8 M by sulforhodamine B assay; details: read-out: Activity
[6] = test system: CCRF-CEM; experiment: Growth inhibition of human CCRF-CEM cells assessed as cell growth at 10^-4 M by sulforhodamine B assay; details: read-out: Activity
[7] = test system: KM12; experiment: Growth inhibition of human KM12 cells assessed as cell growth at 10^-4 M by sulforhodamine B assay; details: read-out: Activity
[8] = test system: RXF 393; experiment: Growth inhibition of human RXF393 cells assessed as cell growth at 10^-4 M by sulforhodamine B assay; details: read-out: Activity
[9] = Growth inhibition of human HCC2998 cells assessed as cell growth at 10^-7 M by sulforhodamine B assay; details: HCC 2998, read-out: Activity
[10] = test system: BT-549; experiment: Growth inhibition of human BT549 cells assessed as cell growth at 10^-4 M by sulforhodamine B assay; details: read-out: Activity
[11] = test system: SNB-75; experiment: Growth inhibition of human SNB75 cells by sulforhodamine B assay
[12] = test system: HCT-116; experiment: Growth inhibition of human HCT116 cells assessed as cell growth at 10^-6 M by sulforhodamine B assay; details: read-out: Activity
[13] = test system: BT-549; experiment: Growth inhibition of human BT549 cells by sulforhodamine B assay
[14] = test system: OVCAR-5; experiment: Growth inhibition of human OVCAR5 cells by sulforhodamine B assay
[15] = test system: Malme-3M; experiment: Growth inhibition of human MALME-3M cells assessed as cell growth at 10^-4 M by sulforhodamine B assay; details: read-out: Activity
[16] = test system: ACHN; experiment: Growth inhibition of human ACHN cells assessed as cell growth at 10^-6 M by sulforhodamine B assay; details: read-out: Activity
[17] = test system: UACC-257; experiment: Growth inhibition of human UACC257 cells assessed as cell growth at 10^-7 M by sulforhodamine B assay; details: read-out: Activity
[18] = test system: TK-10; experiment: Growth inhibition of human TK10 cells assessed as cell growth at 10^-7 M by sulforhodamine B assay; details: read-out: Activity
[19] = test system: OVCAR-4; experiment: Growth inhibition of human OVCAR4 cells assessed as cell growth at 10^-7 M by sulforhodamine B assay; details: read-out: Activity
[20] = test system: U-251; experiment: Growth inhibition of human U251 cells by sulforhodamine B assay
[21] = test system: K562; experiment: Growth inhibition of human K562 cells assessed as cell growth at 10^-8 M by sulforhodamine B assay; details: read-out: Activity
[22] = test system: HT-29; experiment: Growth inhibition of human HT-29 cells assessed as cell growth at 10^-4 M by sulforhodamine B assay; details: read-out: Activity
[23] = test system: LOX IMVI; experiment: Growth inhibition of human LOXIMVI cells assessed as cell growth at 10^-7 M by sulforhodamine B assay; details: read-out: Activity
[24] = test system: MCF7; experiment: Growth inhibition of human MCF7 cells by sulforhodamine B assay
[25] = test system: MDA-MB-435; experiment: Growth inhibition of human MDA-MB-435 cells assessed as cell growth at 10^-8 M by sulforhodamine B assay; details: read-out: Activity
[26] = test system: UO-31; experiment: Growth inhibition of human UO31 cells assessed as cell growth at 10^-7 M by sulforhodamine B assay; details: read-out: Activity
[27] = test system: MDA-MB-435; experiment: Growth inhibition of human MDA-MB-435 cells assessed as cell growth at 10^-7 M by sulforhodamine B assay; details: read-out: Activity
[28] = test system: OVCAR-3; experiment: Growth inhibition of human OVCAR3 cells by sulforhodamine B assay
[29] = test system: SK-OV-3; experiment: Growth inhibition of human SKOV3 cells assessed as cell growth at 10^-8 M by sulforhodamine B assay; details: read-out: Activity
[30] = test system: HT-29; experiment: Growth inhibition of human HT-29 cells assessed as cell growth at 10^-8 M by sulforhodamine B assay; details: read-out: Activity
[31] = test system: HCT-116; experiment: Growth inhibition of human HCT116 cells assessed as cell growth at 10^-8 M by sulforhodamine B assay; details: read-out: Activity
[32] = test system: NCI-H322M; experiment: Growth inhibition of human NCI-H322M cells assessed as cell growth at 10^-6 M by sulforhodamine B assay; details: read-out: Activity
[33] = test system: A549; experiment: Growth inhibition of human A549/ATCC cells assessed as cell growth at 10^-4 M by sulforhodamine B assay; details: read-out: Activity
[34] = test system: NCI-H522; experiment: Growth inhibition of human NCI-H522 cells assessed as cell growth at 10^-7 M by sulforhodamine B assay; details: read-out: Activity
[35] = test system: KM12; experiment: Growth inhibition of human KM12 cells assessed as cell growth at 10^-8 M by sulforhodamine B assay; details: read-out: Activity
[36] = test system: OVCAR-3; experiment: Growth inhibition of human OVCAR3 cells assessed as cell growth at 10^-7 M by sulforhodamine B assay; details: read-out: Activity
[37] = test system: A498; experiment: Growth inhibition of human A498 cells assessed as cell growth at 10^-4 M by sulforhodamine B assay; details: read-out: Activity
[38] = test system: TK-10; experiment: Growth inhibition of human TK10 cells by sulforhodamine B assay
[39] = test system: RPMI-8226; experiment: Growth inhibition of human RPMI8226 cells by sulforhodamine B assay
[40] = read-out: LC50 (the source's name)
[41] = read-out: pLC50 (the source's name) (converted)

C/C=C(/C)C(=O)O[C@@H]1CC(C)(C)C[C@H]2C3=CC[C@@H]4[C@@]5(C)CC[C@H](O)C(C)(C)[C@@H]5CC[C@@]4(C)[C@]3(C)CC[C@@]12C(=O)O [Reduced Lantadene A]
growth at 0.01 µM [1]: 101% | GI50 ([2]; read-out: GI50): 2.13 µM | CC50 [2, 40]: > 100 µM | TGI ([2]; read-out: TGI): 5.21 µM | GI50 ([2]; read-out: pGI50 (converted)): 2.14 µM | CC50 [2, 41]: > 100 µM | TGI ([2]; read-out: pTGI (converted)): 5.25 µM | growth at 0.1 µM [3]: 92% | growth at 1 µM [4]: 97% | growth at 0.01 µM [5]: 113% | growth at 100 µM [6]: -2% | growth at 100 µM [7]: -29% | growth at 100 µM [8]: -76% | growth at 0.1 µM [9]: 104% | growth at 100 µM [10]: -90% | GI50 ([11]; read-out: GI50): 1.77 µM | CC50 [11, 40]: > 100 µM | TGI ([11]; read-out: TGI): 5.37 µM | GI50 ([11]; read-out: pGI50 (converted)): 1.78 µM | CC50 [11, 41]: > 100 µM | TGI ([11]; read-out: pTGI (converted)): 5.37 µM | growth at 1 µM [12]: 82% | GI50 ([13]; read-out: GI50): 1.94 µM | CC50 [13, 40]: 8.53 µM | TGI ([13]; read-out: TGI): 4.06 µM | GI50 ([13]; read-out: pGI50 (converted)): 1.95 µM | CC50 [13, 41]: 8.51 µM | TGI ([13]; read-out: pTGI (converted)): 4.07 µM | GI50 ([14]; read-out: GI50): 3.38 µM | CC50 [14, 40]: 45.5 µM | TGI ([14]; read-out: TGI): 8.9 µM | GI50 ([14]; read-out: pGI50 (converted)): 3.39 µM | CC50 [14, 41]: 45.7 µM | TGI ([14]; read-out: pTGI (converted)): 8.91 µM | growth at 100 µM [15]: -62% | growth at 1 µM [16]: 87% | growth at 0.1 µM [17]: 88% | growth at 0.1 µM [18]: 108% | growth at 0.1 µM [19]: 99% | GI50 ([20]; read-out: GI50): 1.59 µM | CC50 [20, 40]: 6.6 µM | TGI ([20]; read-out: TGI): 3.24 µM | GI50 ([20]; read-out: pGI50 (converted)): 1.58 µM | CC50 [20, 41]: 6.61 µM | TGI ([20]; read-out: pTGI (converted)): 3.24 µM | growth at 0.01 µM [21]: 107% | growth at 100 µM [22]: -64% | growth at 0.1 µM [23]: 100% | GI50 ([24]; read-out: GI50): 3.09 µM | CC50 [24, 40]: > 100 µM | TGI ([24]; read-out: TGI): 16.5 µM | GI50 ([24]; read-out: pGI50 (converted)): 3.09 µM | CC50 [24, 41]: > 100 µM | TGI ([24]; read-out: pTGI (converted)): 16.6 µM | growth at 0.01 µM [25]: 98% | growth at 0.1 µM [26]: 96% | growth at 0.1 µM [27]: 94% | GI50 ([28]; read-out: GI50): 1.95 µM | TGI ([28]; read-out: TGI): 3.61 µM | GI50 ([28]; read-out: pGI50 (converted)): 1.95 µM | TGI ([28]; read-out: pTGI (converted)): 3.63 µM | growth at 0.01 µM [29]: 100% | growth at 0.01 µM [30]: 104% | growth at 0.01 µM [31]: 97% | growth at 1 µM [32]: 93% | growth at 100 µM [33]: -59% | growth at 0.1 µM [34]: 100% | growth at 0.01 µM [35]: 104% | growth at 0.1 µM [36]: 112% | growth at 100 µM [37]: -74% | GI50 ([38]; read-out: GI50): 2.25 µM | CC50 [38, 40]: 9.55 µM | TGI ([38]; read-out: TGI): 4.63 µM | GI50 ([38]; read-out: pGI50 (converted)): 2.24 µM | CC50 [38, 41]: 9.55 µM | TGI ([38]; read-out: pTGI (converted)): 4.68 µM | GI50 ([39]; read-out: GI50): 1.85 µM | CC50 [39, 40]: > 100 µM | TGI ([39]; read-out: TGI): 8.71 µM | GI50 ([39]; read-out: pGI50 (converted)): 1.86 µM | CC50 [39, 41]: > 100 µM | TGI ([39]; read-out: pTGI (converted)): 8.71 µM

From ChEMBL document CHEMBL2413072, “Synthesis and in vitro anticancer studies of novel C-2 arylidene congeners of lantadenes” (2013)
